In patent US10167262B2, “Herbicidal substituted 3-arylpyrazoles” (FMC CORPORATION, priority 2014, dated 2019):

How the values were obtained:
Type in all cases: in vivo
[1] = tested on: pigweed (Amaranthus retroflexus); test: Test A pre-/postemergence greenhouse herbicide test, visual injury rating 0-100; conditions: 1000 g ai/ha
Procedure, shortened: (§1)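 Planting in a loam and sand mixture preceded a directed preemergence soil spray; postemergence spray was applied concurrently to one- to two-leaf plants. After roughly 10 days under glass, injury is scored visually against untreated controls, 0–100.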

[2] = tested on: giant foxtail (Setaria faberii); test: as above; conditions: 1000 g ai/ha
Procedure, shortened: as §1

corn (Zea mays) = test: as above; conditions: 1000 g ai/ha
Procedure, shortened: as §1

[3] = tested on: large (Lg) crabgrass (Digitaria sanguinalis); test: as above; conditions: 1000 g ai/ha
Procedure, shortened: as §1

[4] = tested on: morningglory (Ipomoea spp.); test: as above; conditions: 1000 g ai/ha
Procedure, shortened: as §1

[5] = tested on: barnyardgrass (Echinochloa crus-galli); test: as above; conditions: 1000 g ai/ha
Procedure, shortened: as §1

[6] = tested on: velvetleaf (Abutilon theophrasti); test: as above; conditions: 1000 g ai/ha
Procedure, shortened: as §1

[7] = tested on: wheat (Triticum aestivum); test: as above; conditions: 1000 g ai/ha
Procedure, shortened: as §1

[8] = tested on: ragweed (common ragweed, Ambrosia elatior); test: Test C pre-/postemergence greenhouse test, plant response rating 0-100; conditions: Postemergence;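 also: 0 is no effect and 100 is complete control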
Procedure, shortened: (§2)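 Seeds were sown in a loam soil–sand blend and sprayed preemergence with test chemicals in a non-phytotoxic solvent mixture containing surfactant; postemergence plants in peat/vermiculite medium were treated at 2–18 cm (1- to 4-leaf stage). After 13 to 15 days in the greenhouse, injury was rated visually against untreated controls.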

[9] = tested on: large (Lg) crabgrass (Digitaria sanguinalis); test: as above; conditions: Postemergence
Procedure, shortened: as §2

[10] = tested on: morningglory (Ipomoea coccinea); test: as above; conditions: Postemergence
Procedure, shortened: as §2

[11] = tested on: blackgrass (Alopecurus myosuroides); test: as above; conditions: Postemergence;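 also: 0 is no effect and 100 is complete control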
Procedure, shortened: as §2

[12] = tested on: velvetleaf (Abutilon theophrasti); test: as above; conditions: Postemergence
Procedure, shortened: as §2

Compound: ON=C(c1ccccc1)c1c[nH]nc1-c1cc(Cl)cc(Cl)c1 [Compound 50]
- Plant response rating (0 to 100 scale), Pigweed ([1]; Postemergence): 90
- Plant response rating (0 to 100 scale), Pigweed ([1]; Preemergence): 100
- Plant response rating (0 to 100 scale), Foxtail, Giant ([2]; Postemergence): 10
- Plant response rating (0 to 100 scale), Foxtail, Giant ([2]; Preemergence): 0
- Plant response rating (0 to 100 scale), Corn (corn (Zea mays); Postemergence): 0
- Plant response rating (0 to 100 scale), Corn (corn (Zea mays); Preemergence): 0
- Plant response rating (0 to 100 scale), Crabgrass, Large ([3]; Postemergence): 0
- Plant response rating (0 to 100 scale), Crabgrass, Large ([3]; Preemergence): 0
- Plant response rating (0 to 100 scale), Morningglory ([4]; Postemergence): 0
- Plant response rating (0 to 100 scale), Morningglory ([4]; Preemergence): 0
- Plant response rating (0 to 100 scale), Barnyardgrass ([5]; Postemergence): 0
- Plant response rating (0 to 100 scale), Barnyardgrass ([5]; Preemergence): 0
- Plant response rating (0 to 100 scale), Velvetleaf ([6]; Postemergence): 100
- Plant response rating (0 to 100 scale), Velvetleaf ([6]; Preemergence): 90
- Plant response rating (0 to 100 scale), Wheat ([7]; Postemergence): 0
- Plant response rating (0 to 100 scale), Wheat ([7]; Preemergence): 0
- Plant response rating (0 to 100), Ragweed ([8]; 62 g ai/ha): 0
- Plant response rating (0 to 100), Ragweed ([8]; 125 g ai/ha): 0
- Plant response rating, Ragweed ([8]; 250 g ai/ha, scale 0 to 100): 45
- Plant response rating (0 to 100), Crabgrass, Large ([9]; 31 g ai/ha): 0
- Plant response rating (0 to 100), Crabgrass, Large ([9]; 62 g ai/ha): 0
- Plant response rating (0 to 100), Crabgrass, Large ([9]; 125 g ai/ha): 0
- Plant response rating, Crabgrass, Large ([9]; 250 g ai/ha, scale 0 to 100): 0
- Plant response rating (0 to 100), Morningglory ([10]; 62 g ai/ha): 0
- Plant response rating (0 to 100), Morningglory ([10]; 125 g ai/ha): 0
- Plant response rating, Morningglory ([10]; 250 g ai/ha, scale 0 to 100): 0
- Plant response rating (0 to 100), Blackgrass ([11]; 31 g ai/ha): 0
- Plant response rating (0 to 100), Blackgrass ([11]; 62 g ai/ha): 0
- Plant response rating (0 to 100), Blackgrass ([11]; 125 g ai/ha): 0
- Plant response rating, Blackgrass ([11]; 250 g ai/ha, scale 0 to 100): 0
- Plant response rating (0 to 100), Velvetleaf ([12]; 62 g ai/ha): 75
- Plant response rating (0 to 100), Velvetleaf ([12]; 125 g ai/ha): 90
- Plant response rating, Velvetleaf ([12]; 250 g ai/ha, scale 0 to 100): 95
